In US8889591B2, “Herbicidal compositions comprising 4-amino-3-chloro-5-fluoro-6-(4-chloro-2-fluoro-3-methoxyphenyl)pyridine-2-carboxylic acid or a derivative thereof and bromobutide, daimuron, oxaziclomefone or pyributicarb” (Dow Agrosciences LLC, priority 2012, dated 2014):

Key:
BRAPP = assay: Postemergence foliar-applied greenhouse weed control, direct-seeded rice system; format: in vivo
Source text: (§1) Seeds or nutlets of the desired test plant species were planted in a soil matrix prepared by mixing a loam or sandy loam soil (e.g., 28.6 percent silt, 18.8 percent clay, and 52.6 percent sand, with a pH of about 5.8 and an organic matter content of about 1.8 percent) and calcareous grit in an 80 to 20 ratio. The soil matrix was contained in plastic pots with a volume of 1 quart and a surface area of 83.6 square centimeters (cm^2). When required to ensure good germination and healthy plants, a fungicide treatment and/or other chemical or physical treatment was applied. The plants were grown for 8-22 days in a greenhouse with an approximate 14 h photoperiod which was maintained at about 29° C. during the day and 26° C. during the night. Nutrients (Peters Excel® 15-5-15 5-Ca 2-Mg and iron chelate) were applied in the irrigation solution as needed and water was added on a regular basis. Supplemental lighting was provided with overhead metal halide 1000-Watt lamps as necessary. The plants were employed for testing when they reached the first through fourth true leaf stage.
(§2) Treatments consisted of the acid or esters of 4-amino-3-chloro-5-fluoro-6-(4-chloro-2-fluoro-3-methoxy-phenyl)pyridine-2-carboxylic acid (Compound A), each formulated as an SC (suspension concentrate), and various herbicidal components alone and in combination. Forms of compound A were applied on an acid equivalent basis.
(§3) Other herbicidal components were applied on an active ingredient basis and included diamuron formulated as an EC (emulsifiable concentrate) and oxaziclomefone (technical grade material).
(§4) Treatment requirements were calculated based upon the rates being tested, the concentration of active ingredient or acid equivalent in the formulation, and a 12 mL application volume at a rate of 187 L/ha.
(§5) For treatments comprised of formulated compounds, measured amounts of compounds were placed individually in 25 mL glass vials and diluted in a volume of 1.25% (v/v) Agri-Dex® crop oil concentrated to obtain 12× stock solutions. […] Application solutions were prepared by adding an appropriate amount of each stock solution (e.g., 1 mL) and diluted to the appropriate final concentrations with the addition of 10 mL of an aqueous mixture of 1.25% (v/v) crop oil concentrate so that the final spray solutions contained 1.25+/−0.05% (v/v) crop oil concentrate.
(§6) For treatments comprised of technical compounds, weighed amounts can be placed individually in 25 mL glass vials and dissolved in a volume of 97:3 v/v acetone/DMSO to obtain 12× stock solutions. […] Application solutions can be prepared by adding an appropriate amount of each stock solution (e.g., 1 mL) and diluted to the appropriate final concentrations with the addition of 10 mL of an aqueous mixture of 1.5% (v/v) crop oil concentrate so that the final spray solutions contain 1.25% (v/v) crop oil concentrate. When technical materials are used, the concentrated stock solutions can be added to the spray solutions so that the final acetone and DMSO concentrations of the application solutions are 16.2% and 0.5%, respectively.
(§7) For treatments comprised of formulated and technical compounds, weighed amounts of the technical materials were placed individually in 25 mL glass vials and dissolved in a volume of 97:3 v/v acetone/DMSO to obtain 12× stock solutions, and measured amounts of the formulated compounds were placed individually in 25 mL glass vials and diluted in a volume of 1.5% (v/v) crop oil concentrate or water to obtain 12× stock solutions. […] Application solutions were prepared by adding an appropriate amount of each stock solution (e.g., 1 mL) and diluted to the appropriate final concentrations with the addition of an appropriate amount of an aqueous mixture of 1.5% (v/v) crop oil concentrate so that the final spray solutions contained 1.25% (v/v) crop oil concentrate. […]

ECHCG [1] = assay: as above; format: in vivo, Echinochloa crusgalli (L.) Beauv.
Source text: as §1, §2, §3, §4, §5, §6, §7

ECHCO = assay: as above; format: in vivo, Echinochloa colona (L.) Link
Source text: as §1, §2, §3, §4, §5, §6, §7

LEFCH = assay: as above; format: in vivo, Leptochloa chinensis (L.) Nees
Source text: as §1, §2, §3, §4, §5, §6, §7

IPOHE = assay: as above; format: in vivo, Ipomoea hederacea Jacq.
Source text: as §1, §2, §3, §4, §5, §6, §7

ECHOR = assay: In-water applied greenhouse weed control, transplanted paddy rice system; format: in vivo, Echinochloa oryzoides (Ard.) Fritsch; details: in-water application
Method: (§8) Weed seeds or nutlets of the desired test plant species were planted in puddled soil (mud) prepared by mixing a shredded, non-sterilized mineral soil (50.5 percent silt, 25.5 percent clay, and 24 percent sand, with a pH of about 7.6 and an organic matter content of about 2.9 percent) and water at a 1:1 volumetric ratio. The prepared mud was dispensed in 365 mL aliquots into 16-ounce (oz.) non-perforated plastic pots with a surface area of 86.59 square centimeters (cm^2) leaving a headspace of 3 centimeters (cm) in each pot. Mud was allowed to dry overnight prior to planting or transplanting. Rice seeds were planted in Sun Gro MetroMix® 306 planting mixture, which typically has a pH of 6.0 to 6.8 and an organic matter content of about 30 percent, in plastic plug trays. Seedlings at the second or third leaf stage of growth were transplanted into 840 mL of mud contained in 32-oz. non-perforated plastic pots with a surface area of 86.59 cm^2 4 days prior to herbicide application. The paddy was created by filling the headspace of the pots with 2.5 to 3 cm of water. When required to ensure good germination and healthy plants, a fungicide treatment and/or other chemical or physical treatment was applied. The plants were grown for 4-22 days in a greenhouse with an approximate 14 h photoperiod which was maintained at about 29° C. during the day and 26° C. during the night. Nutrients were added as Osmocote® (19:6:12, N:P:K+ minor nutrients) at 2 g per 16-oz. pot and 4 g per 32-oz. pot. Water was added on a regular basis to maintain the paddy flood, and supplemental lighting was provided with overhead metal halide 1000-Watt lamps as necessary. The plants were employed for testing when they reached the first through fourth true leaf stage.
(§9) Treatments consisted of the acid or esters of 4-amino-3-chloro-5-fluoro-6-(4-chloro-2-fluoro-3-methoxy-phenyl)pyridine-2-carboxylic acid (compound A) each formulated as an SC and various herbicidal components alone and in combination. Forms of compound A were applied on an acid equivalent basis.
(§10) Other herbicidal components were applied on an active ingredient basis and included daimuron formulated as an EC, bromobutide (technical grade material), and oxaziclomefone (technical grade material).
(§11) Treatment requirements for each compound or herbicidal component were calculated based upon the rates being tested, the concentration of active ingredient or acid equivalent in the formulation, an application volume of 2 mL per component per pot, and an application area of 86.59 cm^2 per pot.
(§12) For formulated compounds, a measured amount was placed in an individual 100 or 200 mL glass vial and was dissolved in a volume of 1.25% (v/v) Agri-Dex® crop oil concentrate to obtain application solutions.
(§13) For technical grade compounds, a weighed amount was placed in an individual 100 to 200 mL glass vial and was dissolved in a volume of acetone to obtain concentrated stock solutions. […] The concentrated stock solutions obtained were diluted with an equivalent volume of an aqueous mixture containing 2.5% (v/v) crop oil concentrate so that the final application solutions contained 1.25% (v/v) crop oil concentrate.
(§14) Applications were made by injecting, with a pipetter, appropriate amounts of the application solutions, individually and sequentially, into the aqueous layer of the paddy. Control plants were treated in the same manner with the solvent blank. Applications were made so that all treated plant material received the same concentrations of acetone and crop oil concentrate.
(§15) The treated plants and control plants were placed in a greenhouse as described above and water was added as needed to maintain a paddy flood. After approximately 3 weeks the condition of the test plants as compared with that of the untreated plants was determined visually and scored on a scale of 0 to 100 percent where 0 corresponds to no injury or growth inhibition and 100 corresponds to complete kill. […]

FIMMI = assay: as above; format: in vivo, Fimbristylis miliacea (L.) Vahl; details: in-water application
Method: as §8, §9, §10, §11, §12, §13, §14, §15

CYPIR = assay: Postemergence foliar-applied greenhouse weed control, direct-seeded rice system; format: in vivo, Cyperus iria L.; details: Oxaziclomefone 6.25 gai/ha alone
Source text: as §1, with “stage. […]” for “stage.”
as §4
(§16) For treatments comprised of formulated compounds, measured amounts of compounds were placed individually in 25 mL glass vials and diluted in a volume of 1.25% (v/v) Agri-Dex® crop oil concentrated to obtain 12× stock solutions. […]
(§17) For treatments comprised of formulated and technical compounds, weighed amounts of the technical materials were placed individually in 25 mL glass vials and dissolved in a volume of 97:3 v/v acetone/DMSO to obtain 12× stock solutions, and measured amounts of the formulated compounds were placed individually in 25 mL glass vials and diluted in a volume of 1.5% (v/v) crop oil concentrate or water to obtain 12× stock solutions. […]

SCPJU = assay: as above; format: in vivo, Schoenoplectus juncoides (Roxb.) Palla; details: Oxaziclomefone 6.25 gai/ha alone
Source text: as §1, with “stage. […]” for “stage.”
as §4, §16, §17

CYPRO = assay: In-water applied greenhouse weed control, transplanted paddy rice system; format: in vivo, Cyperus rotundus L.; details: in-water application
Method: as §8, §9, §10, §11, §12, §13, §14, §15

ECHCG [2] = assay: as above; format: in vivo, Echinochloa crusgalli (L.) Beauv.; details: in-water application; Oxaziclomafone 20 gai/ha alone
Method: Weed seeds or nutlets of the desired test plant species were planted in puddled soil (mud) prepared by mixing a shredded, non-sterilized mineral soil (50.5 percent silt, 25.5 percent clay, and 24 percent sand, with a pH of about 7.6 and an organic matter content of about 2.9 percent) and water at a 1:1 volumetric ratio. The prepared mud was dispensed in 365 mL aliquots into 16-ounce (oz.) non-perforated plastic pots with a surface area of 86.59 square centimeters (cm^2) leaving a headspace of 3 centimeters (cm) in each pot. Mud was allowed to dry overnight prior to planting or transplanting. Rice seeds were planted in Sun Gro MetroMix® 306 planting mixture, which typically has a pH of 6.0 to 6.8 and an organic matter content of about 30 percent, in plastic plug trays. Seedlings at the second or third leaf stage of growth were transplanted into 840 mL of mud contained in 32-oz. non-perforated plastic pots with a surface area of 86.59 cm^2 4 days prior to herbicide application. The paddy was created by filling the headspace of the pots with 2.5 to 3 cm of water. […]
as §11
For formulated compounds, a measured amount was placed in an individual 100 or 200 mL glass vial and was dissolved in a volume of 1.25% (v/v) Agri-Dex® crop oil concentrate to obtain application solutions. […]
as §15

[3] = Daimuron 100 gai/ha alone (Table 2)
[4] = Daimuron 200 gai/ha alone (Table 2)
[5] = Daimuron 400 gai/ha alone (Table 2)

Compound: Cc1ccc(NC(=O)NC(C)(C)c2ccccc2)cc1 [Daimuron, N-(4-methylphenyl)-N′-(1-methyl-1-phenylethyl)urea]
- Visual Weed Control (%) - 20 DAA BRAPP Obs (BRAPP; Daimuron 100 gai/ha alone): 0%
- Visual Weed Control (%) - 20 DAA BRAPP Obs (BRAPP; [3]): 0%
- Visual Weed Control (%) - 20 DAA BRAPP Obs (BRAPP; Daimuron 200 gai/ha alone): 0%
- Visual Weed Control (%) - 20 DAA BRAPP Obs (BRAPP; [4]): 0%
- Visual Weed Control (%) - 20 DAA BRAPP Obs (BRAPP; Daimuron 400 gai/ha alone): 0%
- Visual Weed Control (%) - 20 DAA BRAPP Obs (BRAPP; [5]): 0%
- Visual Weed Control (%) - 20 DAA ECHCG Obs (ECHCG [1]; Daimuron 100 gai/ha alone): 0%
- Visual Weed Control (%) - 20 DAA ECHCG Obs (ECHCG [1]; [3]): 0%
- Visual Weed Control (%) - 20 DAA ECHCG Obs (ECHCG [1]; Daimuron 200 gai/ha alone): 0%
- Visual Weed Control (%) - 20 DAA ECHCG Obs (ECHCG [1]; [4]): 0%
- Visual Weed Control (%) - 20 DAA ECHCG Obs (ECHCG [1]; Daimuron 400 gai/ha alone): 0%
- Visual Weed Control (%) - 20 DAA ECHCG Obs (ECHCG [1]; [5]): 0%
- Visual Weed Control (%) - 20 DAA ECHCO Obs (ECHCO; Daimuron 100 gai/ha alone): 0%
- Visual Weed Control (%) - 20 DAA ECHCO Obs (ECHCO; [3]): 0%
- Visual Weed Control (%) - 20 DAA ECHCO Obs (ECHCO; Daimuron 200 gai/ha alone): 10%
- Visual Weed Control (%) - 20 DAA ECHCO Obs (ECHCO; [4]): 10%
- Visual Weed Control (%) - 20 DAA ECHCO Obs (ECHCO; Daimuron 400 gai/ha alone): 10%
- Visual Weed Control (%) - 20 DAA ECHCO Obs (ECHCO; [5]): 10%
- Visual Weed Control (%) - 20 DAA LEFCH Obs (LEFCH; Daimuron 100 gai/ha alone): 0%
- Visual Weed Control (%) - 20 DAA LEFCH Obs (LEFCH; Daimuron 200 gai/ha alone): 0%
- Visual Weed Control (%) - 20 DAA LEFCH Obs (LEFCH; [4]): 0%
- Visual Weed Control (%) - 20 DAA LEFCH Obs (LEFCH; Daimuron 400 gai/ha alone): 0%
- Visual Weed Control (%) - 20 DAA LEFCH Obs (LEFCH; [5]): 0%
- Visual Weed Control (%) - 20 DAA IPOHE Obs (IPOHE; Daimuron 100 gai/ha alone): 0%
- Visual Weed Control (%) - 20 DAA IPOHE Obs (IPOHE; [3]): 0%
- Visual Weed Control (%) - 20 DAA IPOHE Obs (IPOHE; Daimuron 200 gai/ha alone): 10%
- Visual Weed Control (%) - 21 DAA ECHOR Obs (ECHOR; Daimuron 200 gai/ha alone): 0%
- Visual Weed Control (%) - 21 DAA ECHOR Obs (ECHOR; Daimuron 400 gai/ha alone): 15%
- Visual Weed Control (%) - 20 DAA ECHOR Obs (ECHOR; Diamuron 400 gai/ha alone): 60%
- Visual Weed Control (%) - 21 DAA FIMMI Obs (FIMMI; Daimuron 200 gai/ha alone): 10%
- Visual Weed Control (%) - 21 DAA FIMMI Obs (FIMMI; Daimuron 400 gai/ha alone): 80%

Compound: CC1=C(c2ccccc2)C(=O)N(C(C)(C)c2cc(Cl)cc(Cl)c2)CO1 [Oxaziclomefone, 3-[1-(3,5-dichlorophenyl)-1-methylethyl]-2,3-dihydro-6-methyl-5-phenyl-4H-1,3-oxazin-4-one]
- Visual Weed Control (%) - 22 DAA CYPIR Obs (CYPIR): 0%
- Visual Weed Control (%) - 22 DAA SCPJU Obs (SCPJU): 0%
- Visual Weed Control (%) - 21 DAA CYPRO Obs (CYPRO; Oxaziclomafone 20 gai/ha alone (Table 6)): 0%
- Visual Weed Control (%) - 21 DAA CYPRO Obs (CYPRO; Oxaziclomafone 20 gai/ha alone (Table 7)): 0%
- Visual Weed Control (%) - 21 DAA CYPRO Obs (CYPRO; Oxaziclomafone 40 gai/ha alone (Table 7)): 0%
- Visual Weed Control (%) - 21 DAA ECHCG Obs (ECHCG [2]): 80%
